In publication PMC4186430, “Modeling of age-dependent amyloid accumulation and γ-secretase inhibition of soluble and insoluble Aβ in a transgenic mouse model of amyloid deposition” (Pharmacology Research & Perspectives, 2013) one finds IC50, Imax and fraction unbound data, which are given here for 1 molecule.

One data set has as its system soluble Aβ40 production. The experiment in a line: PKPD turnover model of MRK-560 inhibition of soluble Aβ40 production (models A, B, C). Type of data set: in vivo, Tg2576 transgenic mice. To be noted: for IC50: Mus musculus. On the procedure: In a second step, drug effect data were added to the AP analysis in order to develop an integrated PKPD model that incorporated both age-dependent AP and an age-dependent drug effect. To this end, the initially developed logistic model (eq. 3) was combined with a turnover model (Dayneka et al. [1993]; Jusko and Ko [1994]). This part of the analysis was only performed for soluble and insoluble Aβ40, as drug effect data for Aβ42 were not available from all studies. In this approach, the age-dependent AP causing an increase in soluble Aβ40 production (Kin,sol) was described following equations (4 and 5): [drawing 4] (4) [drawing 5] (5) in which Kin,sol and kout,sol corresponded to the production and loss of soluble Aβ40, respectively.
The inhibitory effect of MRK-560 on soluble Aβ40 was modeled using a turnover model (eq. 4), where the production of soluble Aβ40 was inhibited by the drug concentration. The model took into account the time delay between changes in plasma concentration of the drug and changes insoluble Aβ40 levels. Three types of drug effect models were evaluated: (A) absolute (eq. 6), (B) relative change from the baseline (eq. 7), and (C) modified relative change from the baseline (eq. 7). In model B the IC50(solAβ40) was constant, while in model C it was dependent on the soluble Aβ40 levels via a linear function as shown in equation (8).
Kin,sol corresponded to the age-dependent production of soluble Aβ40, kout,sol corresponded to the loss of soluble Aβ40, Imax was a maximum drug-induced soluble Aβ40 reduction (either absolute or relative reduction from the baseline for eqs. 6 and 7, respectively), CBr represented the brain concentrations, IC50 was a concentration which induced half of the maximum inhibition, while AP corresponded to the AP, described using equation (3). Additionally, parameter SL represented a slope of the linear relationship between absolute Aβ40 levels and IC50.
Changes in soluble Aβ40 were assumed to change the production of insoluble Aβ40. This effect was modeled using a turnover model and was described using equations (9–11): [drawing 9] (9) [drawing 10] (10) [drawing 11] (11) where Kin,insol was the production of insoluble Aβ40, which was dependent on the soluble Aβ40 levels, kout,insol was the loss of insoluble Aβ40, and SCALE was the scaling function between soluble and insoluble Aβ40 levels. Similar as in equation (3), α2 from equation (11) was the upper asymptote in the logistic function, ECi2 was a point of inflection and P2 was the slope parameter. A graphical representation of the PKPD model can be found in Figure 1.
All modeling analyses were performed in NONMEM (version 7.1.0, ICON Development Solutions, Ellicott City, MD [Schoemaker and Cohen [1996]]). The best models were chosen based on the analysis of their objective function, the precision of parameter estimates, and goodness-of-fit plots. The analysis of NONMEM output was performed using R software (R Development Core Team [2008]) and Xpose4 package (Jonsson and Karlsson [1998]). The 90% prediction intervals were calculated using the visual predictive check (VPC) as described by (Post et al. [2008]). In brief, 1000 simulations of the data were performed using final parameter estimates and 5th, 50th, and 95th percentiles were calculated.

A further data set is described as follows: Plasma unbound fraction. The note with it: observed, read-out: fu,pl (plasma unbound fraction). Type of data set: in vitro ADME.
Where [1] appears, read: model A (absolute drug effect), estimate (SE%).

As a reminder, the IC50 is the concentration at which inhibition is half-maximal. One may read the fraction unbound as the share of the substance not bound to proteins or other matrix.

For `O=S(=O)(NC1CCC(c2cc(F)ccc2F)(S(=O)(=O)c2ccc(Cl)cc2)CC1)C(F)(F)F` (stereo not drawn) [MRK-560, N-[cis-4-[(4-chlorophenyl)-sulfonyl]-4-(2,5-difluorophenyl)cyclohexyl]-1,1,1-trifluoromethanesulfonamide], the IC50 in the data set on soluble Aβ40 production (setting [1]) was 90 nM; in the data set on soluble Aβ40 production (model B (relative drug effect, constant IC50), estimate (SE%)) it was 190 nM; with soluble Aβ40 production (model C, 5-month-old Tg2576 mice, brain concentration), 110 nM; in the data set with soluble Aβ40 production (model C, 25-month-old Tg2576 mice, brain concentration), 12000 nM. Moreover, the Imax with soluble Aβ40 production (final model (model C)) is given as 86%; in the data set on soluble Aβ40 production (setting [1]) it was 59 (4) pg/mg; in the data set with soluble Aβ40 production (model B (relative drug effect), estimate (SE%)) it was 88 (10) %. In addition, in the data set “Plasma unbound fraction”, the free fraction (fraction unbound) worked out at 0.004.
